# According to patent US20240327393A1 (SIRONAX LTD., priority 2021, published 2024):
# System: HT-1080 (ATCC, CCL-121) cells
# Assay: HT-1080 cell viability assay with ferroptosis inducer RSL3 (Cell Titer-Glo)
# Assay type: cell-based
# Conditions: Homo sapiens; HT-1080 cells treated with RSL3; 3-fold, 10-point dilution, 1.1 μM highest concentration; Table 2; read-out: EC50 (nM), ferroptosis inhibitory activity
# Description: Example 2. Determination of EC50 Values in HT-1080 Cell Viability Assay
# HT-1080 (ATCC, CCL-121) cells (6000 in 100 μl) were seeded in 96-well plates (Corning) and cultured in a 37° C. incubator with a humidified atmosphere of 5% CO2 for overnight. Cells were then treated with ferroptosis inducer RSL3 (TargetMol) and a 3-fold, 10-point serial dilution series of compounds with 1.1 μM as the highest concentration, […]. Cell viability was assessed using the Cell Titer-Glo Kit (Promega). The luminescence intensity was measured with a microplate reader (Envision, PerkinElmer), and cell viability was calculated by normalizing the data to untreated controls. The EC50 values of the compounds (e.g., Compounds 1-659) were calculated in GraphPad Prism (GraphPad Software, Inc., San Diego, CA, USA). The curves were fitted using a non-linear regression model with a sigmoidal dose response.
row,EC50,Compound
1,0.1 to 100 nM,"CC1CCCCN1c1ccc(Nc2ccc3c(c2)CN(C)C3=O)cc1 (stereo not shown) [Compound 240, 2-methyl-5-((4-(2-methylpiperidin-1-yl)phenyl)amino)isoindolin-1-one]"
2,0.1 to 100 nM,"CC1CN(c2ncc(Nc3ccc4c(c3)OCC(=O)N4C)cn2)CC(C)O1 (stereo not shown) [Compound 66, 7-((2-(2,6-dimethylmorpholino)pyrimidin-5-yl)amino)-4-methyl-2H-benzo[b][1,4]oxazin-3(4H)-one]"
3,0.1 to 100 nM,"COc1cc(Nc2ccc3c(c2)n(C)c(=O)n3C)ccc1N1CCC(C(F)(F)F)CC1 [Compound 269, 5-((3-methoxy-4-(4-(trifluoromethyl)piperidin-1-yl)phenyl)amino)-1,3-dimethyl-1,3-dihydro-2H-benzo[d]imidazol-2-one]"
4,0.1 to 100 nM,CN1CCN(CC(=O)N2Cc3ccc(Nc4ccc(N5CCC(C(F)(F)F)CC5)c(F)c4)cc3C2)CC1 [Compound 164]
5,0.1 to 100 nM,"Cn1c(=O)oc2cc(Nc3ccc(N4CCC(CF)CC4)cc3)ccc21 [Compound 387, 6-((4-(4-(fluoromethyl)piperidin-1-yl)phenyl)amino)-3-methylbenzo[d]oxazol-2(3H)-one]"
6,0.1 to 100 nM,"Cn1c(=O)n(C)c2cc(Nc3ccc(N4CCC(F)(F)CC4)cc3)ccc21 [Compound 297, 5-((4-(4,4-difluoropiperidin-1-yl)phenyl)amino)-1,3-dimethyl-1,3-dihydro-2H-benzo[d]imidazol-2-one]"
7,0.1 to 100 nM,"CCN1Cc2cc(Nc3ccc(N4CCC(C(F)(F)F)CC4)cc3)ccc2C1=O [Compound 180, 2-ethyl-5-((4-(4-(trifluoromethyl)piperidin-1-yl)phenyl)amino) isoindolin-1-one]"
8,0.1 to 100 nM,"CNCCCN1C(=O)COc2cc(Nc3ccc(N4CC(C)OC(C)C4)cc3C)ccc21 (stereo not shown) [Compound 50, 7-((4-(2,6-dimethylmorpholino)-2-methylphenyl)amino)-4-(3-(methylamino)propyl)-2H-benzo[b][1,4]oxazin-3(4H)-one]"
9,0.1 to 100 nM,"Cn1c(=O)n(C)c2cc(Nc3ccc4nccn4c3)ccc21 [Compound 310, 5-(imidazo[1,2-a]pyridin-6-ylamino)-1,3-dimethyl-1,3-dihydro-2H-benzo[d]imidazol-2-one]"
10,100 to 1000 nM,"CN1Cc2cc(Nc3ccc4nccn4c3)ccc2C1=O [Compound 233, 5-(imidazo[1,2-a]pyridin-6-ylamino)-2-methylisoindolin-1-one]"
11,0.1 to 100 nM,"Cc1cc(N2CC(C)OC(C)C2)ccc1Nc1ccc2c(c1)OCC(=O)N2C (stereo not shown) [Compound 51, 7-((4-(2,6-dimethylmorpholino)-2-methylphenyl)amino)-4-methyl-2H-benzo[b][1,4]oxazin-3(4H)-one]"
12,0.1 to 100 nM,"CN(C)c1cc(Nc2ccc3c(c2)n(C)c(=O)n3C)cc(N(C)C)c1 [Compound 277, 5-((3,5-bis(dimethylamino)phenyl)amino)-1,3-dimethyl-1,3-dihydro-2H-benzo[d]imidazol-2-one]"
13,0.1 to 100 nM,"Cc1cc(N2CCC(C)CC2)cc(C)c1Nc1ccc2c(c1)n(C)c(=O)n2C [Compound 278, 5-((2,6-dimethyl-4-(4-methylpiperidin-1-yl)phenyl)amino)-1,3-dimethyl-1,3-dihydro-2H-benzo[d]imidazol-2-one]"
14,0.1 to 100 nM,"CN1C(=O)COc2cc(Nc3ccc(N4CCC(C(F)(F)F)CC4)cc3)ccc21 [Compound 2, 4-methyl-7-((4-(4-(trifluoromethyl)piperidin-1-yl)phenyl)amino)-2H-benzo[b][1,4]oxazin-3(4H)-one]"
15,0.1 to 100 nM,"CN1C(=O)COc2cc(Nc3ccc(OCCCF)cc3)ccc21 [Compound 13, 7-((4-(3-fluoropropoxy)phenyl)amino)-4-methyl-2H-benzo[b][1,4]oxazin-3(4H)-one]"
16,0.1 to 100 nM,"CC1CN(c2ccc(Nc3ccc4c(=O)n(C)[nH]c4c3)cc2)CC(C)O1 (stereo not shown) [Compound 432, 6-((4-(2,6-dimethylmorpholino)phenyl)amino)-2-methyl-1H-indazol-3(2H)-one]"
17,0.1 to 100 nM,"Cn1c(=O)oc2cc(Nc3ccc(N4CC(C)(C)C4)cc3)ccc21 [Compound 324, 6-((4-(3,3-dimethylazetidin-1-yl)phenyl)amino)-3-methylbenzo[d]oxazol-2(3H)-one]"
18,0.1 to 100 nM,"CC1CCN(c2ccc(Nc3ccc4ncn(C)c4c3)cc2)CC1 [Compound 270, 1-methyl-N-(4-(4-methylpiperidin-1-yl)phenyl)-1H-benzo[d]imidazol-6-amine]"
19,0.1 to 100 nM,"O=c1ccc2cc(Nc3ccc(N4CCC(C(F)(F)F)CC4)cc3)ccc2o1 [Compound 123, 6-((4-(4-(trifluoromethyl)piperidin-1-yl)phenyl)amino)-2H-chromen-2-one]"
20,100 to 1000 nM,"Cn1c(=O)c2ccc(Nc3ccc(N4CCC(C(F)(F)F)CC4)cc3)cc2n1C(=O)OC(C)(C)C [Compound 188, tert-butyl 2-methyl-3-oxo-6-((4-(4-(trifluoromethyl)piperidin-1-yl)phenyl)amino)-2,3-dihydro-1H-indazole-1-carboxylate]"
21,0.1 to 100 nM,"Cn1cnc2ccc(Nc3ccc(N4CCC(C(F)(F)F)CC4)cc3)cc21 [Compound 350, 1-methyl-N-(4-(4-(trifluoromethyl)piperidin-1-yl)phenyl)-1H-benzo[d]imidazol-6-amine]"
22,0.1 to 100 nM,"O=c1[nH]c2cc(Nc3ccc(N4CCC(C(F)(F)F)CC4)cc3)ccc2o1 [Compound 433, 5-((4-(4-(trifluoromethyl)piperidin-1-yl)phenyl)amino) benzo[d]oxazol-2(3H)-one]"
23,0.1 to 100 nM,"NC(=O)CCn1cc2cc(Nc3ccc(N4CCC(C(F)(F)F)CC4)cc3)ccc2n1 [Compound 413, 3-(5-((4-(4-(trifluoromethyl)piperidin-1-yl)phenyl)amino)-2H-indazol-2-yl)propanamide]"
24,100 to 1000 nM,"CCOC(=O)c1ccc(Nc2ccc3c(c2)n(C)c(=O)n3C)cc1 [Compound 306, ethyl 4-((1,3-dimethyl-2-oxo-2,3-dihydro-1H-benzo[d]imidazol-5-yl)amino)benzoate]"
25,0.1 to 100 nM,"CC(C)C1CCN(c2ncc(Nc3ccc4c(c3)OCC(=O)N4C)cn2)CC1 [Compound 36, 7-((2-(4-isopropylpiperidin-1-yl)pyrimidin-5-yl)amino)-4-methyl-2H-benzo[b][1,4]oxazin-3(4H)-one]"
26,0.1 to 100 nM,"CN1Cc2cc(Nc3ccc(N4CCC(C(F)(F)F)C4)cc3)ccc2C1=O (stereo not shown) [Compound 222, 2-methyl-5-((4-(3-(trifluoromethyl)pyrrolidin-1-yl)phenyl)amino) isoindolin-1-one]"
27,0.1 to 100 nM,"Cn1c(=O)oc2cc(Nc3ccc(N4CCC(O)(C(F)(F)F)CC4)cc3)ccc21 [Compound 333, 6-((4-(4-hydroxy-4-(trifluoromethyl)piperidin-1-yl)phenyl)amino)-3-methylbenzo[d]oxazol-2(3H)-one]"
28,0.1 to 100 nM,"CC1CN(c2ccc(Nc3ccc4c(c3)oc(=O)n4C)cc2)CC(C)O1 (stereo not shown) [Compound 317, 6-((4-(2,6-dimethylmorpholino)phenyl)amino)-3-methylbenzo[d]oxazol-2(3H)-one]"

# Same assay, conditions: Homo sapiens; HT-1080 cells treated with RSL3; 3-fold, 10-point dilution, 1.1 μM highest concentration; Table 3; read-out: EC50 (nM), ferroptosis inhibitory activity
row,EC50,Compound
1,0.1 to 100 nM,"Cc1cc(N2CCC(C(F)(F)F)CC2)ccc1Nc1cnc2c(c1)OCC(=O)N2 [Compound 460, 7-((2-methyl-4-(4-(trifluoromethyl)piperidin-1-yl)phenyl)amino)-2H-pyrido[3,2-b][1,4]oxazin-3(4H)-one]"
2,0.1 to 100 nM,"COC1CCN(c2ccc(Nc3ccc4c(c3)OCC(=O)N4)c(C)c2)C1 (stereo not shown) [Compound 618, 7-{[4-(3-methoxypyrrolidin-1-yl)-2-methylphenyl]amino}-2,4-dihydro-1,4-benzoxazin-3-one]"
3,0.1 to 100 nM,"Cc1cc(N2CC(F)C2)ccc1Nc1ccc2c(c1)OCC(=O)N2 [Compound 572, 7-(4-(3-fluoroazetidin-1-yl)-2-methylphenylamino)-2H-benzo[b][1,4]oxazin-3(4H)-one]"
4,0.1 to 100 nM,"CN1C(=O)COc2cc(Nc3ccc(N4CCC(C(F)(F)F)CC4)cc3)c(N)cc21 [Compound 469, 6-amino-4-methyl-7-((4-(4-(trifluoromethyl)piperidin-1-yl)phenyl)amino)-2H-benzo[b][1,4]oxazin-3(4H)-one]"
5,0.1 to 100 nM,"Cc1cc(N2CCC(C(F)(F)F)CC2)ccc1Nc1ccc2c(c1)OC(CO)C(=O)N2C (stereo not shown) [Compound 570, 2-(hydroxymethyl)-4-methyl-7-((2-methyl-4-(4-(trifluoromethyl)piperidin-1-yl)phenyl)amino)-2H-benzo[b][1,4]oxazin-3(4H)-one]"
6,0.1 to 100 nM,"Cc1cc(N2CCC(C)C2)ccc1Nc1ccc2c(c1)OCC(=O)N2 (stereo not shown) [Compound 604, 7-((2-methyl-4-(3-methylpyrrolidin-1-yl)phenyl)amino)-2H-benzo[b][1,4]oxazin-3(4H)-one]"
7,0.1 to 100 nM,"Cc1cc(N2CCN(CC(F)(F)F)CC2)ccc1Nc1ccc2c(c1)OCC(=O)N2 [Compound 569, 7-((2-methyl-4-(4-(2,2,2-trifluoroethyl)piperazin-1-yl)phenyl)amino)-2H-benzo[b][1,4] oxazin-3(4H)-one]"
8,0.1 to 100 nM,"COc1cc(Nc2cnc3c(c2)OCC(=O)N3)ccc1N1CCC(C(F)(F)F)CC1 [Compound 465, 7-((3-methoxy-4-(4-(trifluoromethyl)piperidin-1-yl)phenyl)amino)-2H-pyrido[3,2-b][1,4]oxazin-3(4H)-one]"
9,0.1 to 100 nM,"COc1cc(Nc2cnc3c(c2)OCC(=O)N3C)ccc1N1CCC(C(F)(F)F)CC1 [Compound 464, 7-({3-methoxy-4-[4-(trifluoromethyl)piperidin-1-yl]phenyl}amino)-4-methyl-2H-pyrido[3,2-b][1,4]oxazin-3-one]"
